Data set [1] concerns A549 non-small cell lung. The experiment in a line: MTT growth inhibition assay, A549. Format: cell-based, human. To be noted: 96 h. The procedure: (§1) Tumor cell growth inhibition was assessed using the MTT assay.^13 2×10^3 cells were inoculated into a 96-well plate and incubated overnight at 37° C. in a humidified atmosphere containing 5% CO2. Complexes were solubilised in DMSO as above, and then diluted in complete cell culture medium to give a broad range of concentrations. Cisplatin was included in the screen as a comparator. Medium was removed from each well and replaced with complex or control solutions, and the plates then incubated for a further 96 hours. After 96 h culture medium was removed and 200 μL of 0.5 mg mL^−1 MTT solution (Sigma) in complete medium added to each well. Following further 4 h incubation, the solution was removed from each well and 150 μL of DMSO (Sigma) added to solubilise the formazan crystals resulting from MTT conversion. Absorbance values for the resulting solutions were read at 550 nm on a microplate reader and cell survival calculated as the absorbance of treated cells divided by the control. Results were expressed in terms of IC50 values (i.e. concentration of compound required to kill 50% of cells) and all experiments were performed in triplicate.
(§2) The following human cancer cell lines were cultured in RPMI 1640 cell culture medium supplemented with 1 mM sodium pyruvate, 2 mM L-glutamine and 10% fetal bovine serum (all from Sigma): A549 non-small cell lung, HCT-116 colon, MCF-7 breast, PC-3 prostate (all from LGC Promochem, Teddington, UK), A2780/cis ovarian (cisplatin-resistant) and RT-112 bladder (both from ECACC, Salisbury, UK).
On the technique in general: Tetrazolium dyes change colour on reduction, which living cells bring about.

Data set [2] concerns MCF-7 breast. As to the kind of experiment: MTT growth inhibition assay, MCF-7. Format: cell-based, human. To be noted: 96 h. Here is the method:
as §1, §2

Data set [3] relates to RT-112 bladder. As to the kind of experiment: MTT growth inhibition assay, RT-112. To be noted: MTT, 96 h. Format: cell-based, human. Here is the method: as §1, §2
The test system of data set [4] is PC-3 prostate. As to the kind of experiment: MTT growth inhibition assay, PC-3. To be noted: 96 h. Format: cell-based, human. The procedure:
as §1, §2

The test system of data set [5] is A2780 cells. As to the kind of experiment: N-acetyl-L-cysteine (NAC) treatment, cell viability by SRB. Format: cell-based, human. To be noted: pretreated with 5 mM NAC for 2 h; 1.2-1.8× IC50 (2.5× for cisplatin). Here is the method: Then NAC and osmium complexes were removed at the same time and washed with PBS once, the cells were incubate for 72 h for recovery. The cell viability was tested by SRB test same as used for IC50 test.

Data set [6] deals with HCT-116 colon. The experiment in a line: MTT growth inhibition assay, HCT-116. Format: cell-based, human. To be noted: 96 h. Here is the method: as §1, §2
For data set [7], the system named is human ovarian A2780 cancer cells. The experiment in a line: SRB growth inhibition assay, A2780. Format: cell-based. To be noted: SRB; 24 h exposure, 72 h recovery; read-out: IC50 values for azopyridine complexes against A2780 ovarian cancer cells. The procedure:
The concentrations of the osmium complexes that inhibit 50% of the proliferation of human ovarian A2780 cancer cells were determined by sulforhodamine B test. A2780 cells were seeded in 96-well plate (Falcon) at 5000 cells/well, after the incubation for 48 h, The complexes were solubilised in DMSO (Sigma) to provide 10 mM stocks. The stocks were serially diluted by cell culture media to give concentrations four-fold than the final concentrations for the assay. The dilutions of complexes in cell culture media were added to the 96-well plate with cells in triplicates to achieve the final concentrations. The final DMSO concentration in each well was no more than 1% (v/v). The complexes were removed after 24 h. The cells were washed with Phosphate Buffered Saline once and cell culture media was added 150 μL/well. The cells were recovered for 72 h. The surviving cells were fixed by adding 150 μL/well of 50% (w/v) trichloroacetic acid and incubated for 1 h at 277 K (277 K). The plates were washed with tap water three times and dried under a flow of warm air, 0.4% sulforhodamine B (Sigma) solution 100 μL/well followed by washing with 1% acetic acid five times and dried under a flow of warm air. The dye was dissolved in 10 mM Tris buffer […] The absorbance of each well was obtained by the Multiskan Ascent plate reader (Labsystems) at 540 nm. The absorbance value of SRB in each well is directly proportional to the cell number. Then the absorbance can be plotted against concentration and the IC50 determined by using Origin software.
The cytotoxicity studies were carried out as described previously above.

The nature of data set [8]: Stability and hydrolysis (1H NMR, MS, UV-vis). Format: physicochemical. To be noted: 310 K, 24 h, 95% deuterated phosphate buffer (10 mM)/5% MeOD-d4.
The test system of data set [9] is A2780/cis ovarian (cisplatin-resistant). As to the kind of experiment: MTT growth inhibition assay, A2780/cis. To be noted: 96 h. Format: cell-based, human. Here is the method: as §1, §2
The test system of data set [10] is human A549 lung cancer cells. To be noted: cited from earlier work.

The source of these data is patent publication US9598448B2, “Osmium (II) arene imino anti-cancer complexes” (University of Warwick, priority 2010, dated 2017).

As usually defined, the IC50 is the concentration that inhibits the measured activity by half.

Regarding “[(η^6-p-cym)Os(Azpy-NMe2)Cl]PF6 [Complex 12]”, the IC50 in data set [1] turned out to be 5.2 µM; in data set [2], 1.1 µM; in data set [3] it was 2.2 µM; in [4] it was 6.8 µM; in data set [6], 0.9 µM; in data set [7], 1.8 µM. The substance also gave an IC50 in data set [9] of 1.8 µM. The “cell growth restored after NAC pretreatment” value in data set [5] was “only a small effect on restoring growth”. In data set [8], the “stability and hydrolysis in aqueous solution” value is “remained stable and did not hydrolyze”. Besides, the “cytotoxicity against the A549 cancer cell line” value in data set [10] is recorded as “did not show significant cytotoxicity”. The “activity towards human A549 lung cancer cells” value in [10] (up to concentrations of 100 μM) is listed as “No activity”.
